For 13 compounds, IC50 and EC50 results are on record in patent publication US20260207618A1, “PYRIMIDINE CARBOXAMIDE COMPOUNDS” (Acrivon Therapeutics, Inc., priority 2022, published 2026).

The target in assay [1] is T1, recombinant human Wee1A kinase (Homo sapiens, UniProt P30291).
T1 construct: full length Wee1A kinase was expressed by baculovirus in insect cells; purchased Invitrogen PV3817; host or cells: insect cells (baculovirus)
Kind of assay: LanthaScreen Europium (Eu) Kinase Binding Assay, Wee1A kinase (TR-FRET tracer displacement). To be noted: 30 nM tracer 178, 5 nM Wee1A kinase, 60 minutes at room temperature. An excerpt:
We used a LanthaScreen Europium (Eu) Kinase Binding Assay to determine the binding of provided compounds to Wee1A kinase. The assay utilizes an Alexa Fluor 647-labeled ATP competitive kinase tracer that binds to the ATP binding site of a GST-tagged Wee1A kinase, while a europium (Eu) labeled antibody binds to the GST tag. The proximity of fluorescently labeled kinase tracer and europium (Eu) donor fluorophore antibody leads to fluorescence resonance energy transfer (FRET) to the fluorescence label (acceptor) upon excitation of the Eu (donor). Displacement of tracer from the ATP-binding site by a test compound disturbs the proximity between both labels thus lowering the FRET.
This time resolved-FRET binding assay was performed in white 384-well low volume plates (Greiner, cat #784075), at room temperature in kinase buffer A (KBA; Invitrogen cat #PV3189), consisting of 50 mM HEPES-NaOH (pH 7.5), 0.01% Brij-35, 10 mM MgCl2, and 1 mM EGTA. 5 μl of compound (diluted in reaction buffer, to 1% DMSO) were added to various wells in the plate, followed by 5 μl each of recombinant human Wee1A kinase (full length Wee1A kinase was expressed by baculovirus in insect cells using a N-terminal GST tag (MW: 99.1 kDa) (Invitrogen cat #PV3817) and LanthaScreen Eu-anti-GST antibody (Invitrogen, cat #PV5594). After this, 5 μl of kinase tracer 178 (Invitrogen, cat #PV5593) was added to the plate and the plate was incubated for 60 minutes at room temperature. The final assay conditions in each well were: 30 nM tracer 178, 5 nM Wee1A kinase and 2 nM Eu-labeled antibody in total assay volume of 15 μl. An Envision 2104 (Perkin-Elmer) Plate Reader with the following time-resolve fluorescence setting was used for performing LanthaScreen kinase binding assay. • Excitation 320 nm (30 nm bandpass) • Kinase Tracer Emission 665 nm (10 nm bandpass) • LanthaScreen Eu-anti-Tag Antibody Emission 615 nm (10 nm bandpass) • Dichroic Mirror Instrument dependent • Delay Time 100 μs • Integration Time 200 μs
To calculate the emission ratio, the acceptor/tracer emission ([…]) was divided by the antibody/donor emission ([…]) and the average of duplicate measurement was used for calculations. Data plotting, analysis of binding, and curve fitting was done using Excel add-in XLfit version 5.5.0.5 (IDBS, Guildford, United Kingdom).
In general terms: In TR-FRET formats the signal depends on donor and acceptor labels being close together.

Assay [2] has as its system Cdk1 phosphorylated on tyrosine 15. Put plainly: High-content imaging of pCdk1 Y15 by immunofluorescence in ACHN cells. To be noted: Homo sapiens, high-content imaging (IF), 4 h, 7 to 5000 nM, read-out: CDK1 Tyr15 Phosphorylation EC50 (IC50). It counts as cell-based. The procedure:
ACHN renal cell carcinoma cell line (ATCC) was cultured in Minimum Essential Medium Eagle supplemented with 10% fetal calf serum (Sigma), 1% Penicillin-Streptomycin and 10 mM HEPES buffer (HyClone). Cell cultures were kept in a humidified incubator at 37° C. and 5% CO2. Cells were routinely tested for Mycoplasma contamination.
High-content imaging of ACHN renal cell carcinoma cells was used for quantification of CDK1 phosphorylated on tyrosine 15 by immunofluorescence (“IF”). 20 000 cells per well were seeded in tissue culture treated 96 well plates and treated with compounds at concentrations ranging from 7 to 5000 nM for 4 h. Cells were fixated for 15 minutes in 4% paraformaldehyde solution, washed in PBS and permeabilized using 0.2% Triton X-100. Blocking was performed for 1 h at RT using Blocker FL Fluorescent Blocking Buffer (Thermo Scientific), thereafter cells were incubated with primary antibody (rabbit anti-pCDK1 Y^15, #4539, Cell Signaling Technology) at 4° C. ON. Alexa Fluor Plus 647 labelled goat anti-rabbit (A32733. Thermo Scientific) was used as secondary antibody. After washing in PBS, nuclei were stained with DAPI solution for 10 min at RT, protected from light. Cells were imaged using an ImageXpress Pico automated imaging system and CellReporter Xpress software (Molecular Devices). The percentage cells with nuclear positivity for pCdk1 Y^15 compared to DMSO control was determined for each well and drug dose response curves and EC50 values were calculated and visualized using GraphPad Prism.

The IC50 is the concentration that gives 50% inhibition. What is called EC50 is the concentration needed to bring the measured effect to its halfway point.

T1 sequence (P30291 whole entry): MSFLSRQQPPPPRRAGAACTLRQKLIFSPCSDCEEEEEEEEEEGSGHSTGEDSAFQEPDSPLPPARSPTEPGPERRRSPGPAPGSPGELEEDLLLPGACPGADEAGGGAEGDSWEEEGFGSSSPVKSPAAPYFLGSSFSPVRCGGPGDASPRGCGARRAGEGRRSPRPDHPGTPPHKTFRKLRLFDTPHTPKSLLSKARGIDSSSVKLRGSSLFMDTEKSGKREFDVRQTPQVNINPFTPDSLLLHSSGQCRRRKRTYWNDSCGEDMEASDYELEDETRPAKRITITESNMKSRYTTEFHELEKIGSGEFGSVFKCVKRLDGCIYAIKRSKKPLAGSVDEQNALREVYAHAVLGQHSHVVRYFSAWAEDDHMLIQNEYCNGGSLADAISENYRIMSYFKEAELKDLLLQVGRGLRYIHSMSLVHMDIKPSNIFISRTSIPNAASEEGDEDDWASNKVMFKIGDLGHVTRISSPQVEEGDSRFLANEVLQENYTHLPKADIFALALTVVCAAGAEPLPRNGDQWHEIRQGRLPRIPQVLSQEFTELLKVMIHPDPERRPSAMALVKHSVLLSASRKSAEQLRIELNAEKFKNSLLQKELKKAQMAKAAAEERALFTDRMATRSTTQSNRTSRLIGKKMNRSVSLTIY

As for `CCOc1nc(Nc2cnn([C@@H](C)CN(C)C)c2)ncc1C(=O)Nc1c(Cl)cccc1Br` [Compound 202, N-(2-bromo-6-chlorophenyl)-2-{1-[(S)-2-(dimethylamino)-1-methylethyl]-4-pyrazolylamino}-4-ethoxy-5-pyrimidinecarboxamide], the half-inhibitory concentration (IC50) in assay [1] was at most 10 nM. Moreover, the EC50 in assay [2] was over 1000 nM.

`COc1nc(Nc2ccc(O[C@@H]3CCN(C)C3)c(C)c2)ncc1C(=O)Nc1c(Cl)cccc1Cl` [Compound 146, (R)—N-(2,6-dichlorophenyl)-4-methoxy-2-((3-methyl-4-((1-methylpyrrolidin-3-yl)oxy)phenyl)amino)pyrimidine-5-carboxamide]: the IC50 in assay [1] was at most 10 nM. Besides, in assay [2], the EC50 is at most 100 nM.

As to `COc1nc(Nc2ccc(C3CCN(C)CC3)c(C)c2)ncc1C(=O)Nc1ccccc1Br` [Compound 107, N-(2-bromophenyl)-4-methoxy-2-((3-methyl-4-(1-methylpiperidin-4-yl)phenyl)amino)pyrimidine-5-carboxamide], the IC50 in assay [1] was at most 10 nM. The EC50 in assay [2] is over 1000 nM.

As to `COc1nc(Nc2ccc(OC3CCNCC3)c(C)c2)ncc1C(=O)Nc1c(Cl)cccc1Br` [Compound 219], the concentration for half-maximal inhibition (IC50) in assay [1] was at most 10 nM. In addition, in assay [2], the half-maximal effective concentration (EC50) lay in the range of 100 to 500 nM.

Consider `COc1nc(Nc2ccc(N3CCC4(CCN(C)CC4)CC3)cc2)ncc1C(=O)Nc1c(Cl)cccc1Br` [Compound 209, N-(2-bromo-6-chlorophenyl)-4-methoxy-2-{p-(9-methyl-3,9-diaza-3-spiro[5.5]undecyl)phenylamino}-5-pyrimidinecarboxamide], for which the 50% inhibitory concentration (IC50) in assay [1] was at most 10 nM. The EC50 in assay [2] was in the range of 100 to 500 nM.

On to `COc1nc(Nc2ccc(N3CCNCC3)c(C)c2)ncc1C(=O)Nc1c(Cl)cccc1Cl` [Compound 162], for which the IC50 in assay [1] is at most 10 nM. For the same compound, in assay [2], the EC50 was in the range of 100 to 500 nM.

As to `COc1nc(Nc2ccc(C3CCN(C)CC3)c(C)c2)ncc1C(=O)Nc1c(F)cccc1Br` [Compound 136, N-(2-bromo-6-fluorophenyl)-4-methoxy-2-((3-methyl-4-(1-methylpiperidin-4-yl)phenyl)amino)pyrimidine-5-carboxamide], the IC50 in assay [1] is at most 10 nM. In addition, the EC50 in assay [2] lay in the range of 100 to 500 nM.

For `CN1CCN(c2ccc(Nc3ncc(C(=O)Nc4c(Cl)cccc4Cl)c(OCCO)n3)cc2)CC1` [Compound 123, N-(2,6-dichlorophenyl)-4-(2-hydroxyethoxy)-2-((4-(4-methylpiperazin-1-yl)phenyl)amino)pyrimidine-5-carboxamide], the half-inhibitory concentration (IC50) in assay [1] fell in the range of 10 to 100 nM. Moreover, the EC50 in assay [2] was over 1000 nM.

Turning to `COc1nc(Nc2cnn([C@H]3CCCN(C)CC3)c2)ncc1C(=O)Nc1c(Cl)cccc1Cl` [Compound 189, N-2,6-dichlorophenyl-2-{1-[(S)-1-methyl-4-azepanyl]-4-pyrazolylamino}-4-methoxy-5-pyrimidinecarboxamide], the 50% inhibitory concentration (IC50) in assay [1] was at most 10 nM. In assay [2], the EC50 was 100 to 500 nM.

Regarding `COc1nc(Nc2ccc(N3CCN(C)CCC3=O)cc2)ncc1C(=O)Nc1c(Cl)cccc1Cl` [Compound 185, N-(2,6-dichlorophenyl)-4-methoxy-2-((4-(4-methyl-7-oxo-1,4-diazepan-1-yl)phenyl)amino)pyrimidine-5-carboxamide], the half-maximal inhibitory concentration (IC50) in assay [1] is at most 10 nM. Moreover, the EC50 in assay [2] was 100 to 500 nM.

Turning to `COc1nc(Nc2ccc(OC3CCN(C)CC3)c(C)c2)ncc1C(=O)Nc1c(Cl)cccc1Cl` [Compound 145, N-(2,6-dichlorophenyl)-4-methoxy-2-((3-methyl-4-((1-methylpiperidin-4-yl)oxy)phenyl)amino)pyrimidine-5-carboxamide], the IC50 in assay [1] was at most 10 nM. The 50% effective concentration (EC50) in assay [2] lay within 100 to 500 nM.

As to `COc1nc(Nc2ccc([C@H]3CCN(C)C3)c(C)c2)ncc1C(=O)Nc1c(Cl)cccc1Br` [Compound 192], the IC50 in assay [1] is at most 10 nM. For the same compound, the EC50 in assay [2] lay in the range of 100 to 500 nM.

Turning to `COc1nc(Nc2ccc(N3CCCN(C)CC3)cc2)ncc1C(=O)Nc1c(Cl)cccc1Br` [Compound 206, N-(2-bromo-6-chlorophenyl)-4-methoxy-2-[p-(4-methyl-1,4-diazepan-1-yl)phenylamino]-5-pyrimidinecarboxamide], the IC50 in assay [1] was at most 10 nM. Also, in assay [2], the EC50 fell in the range of 100 to 500 nM.
